Results from paper PMC7248570 (Frontiers in Microbiology, 2020).

Experiments:
[1] = system: CgLAO; format: biochemical, Infundibulicybe geotropa
[2] = system: CgmycLAO; format: biochemical, Infundibulicybe geotropa

## CC(C)C[C@H](N)C(=O)O [L-Leu]
[1]
  Km: 550 ± 60 µM
[2]
  Km: 1.52 ± 0.06 mM
